Patent US10266497B2 (ABIDE THERAPEUTICS, INC., priority 2017, dated 2019)
pIC50: −log10 of the molar value.

Tests used:
FAAH [1] = biological target: T1, FAAH (Homo sapiens, UniProt O00519); assay: In vitro competitive activity-based protein profiling, FAAH, human; conditions: for inhibition at 1 µM: read-out: FAAH % inh. 1 μM (human)
T1 sequence (O00519 1-579): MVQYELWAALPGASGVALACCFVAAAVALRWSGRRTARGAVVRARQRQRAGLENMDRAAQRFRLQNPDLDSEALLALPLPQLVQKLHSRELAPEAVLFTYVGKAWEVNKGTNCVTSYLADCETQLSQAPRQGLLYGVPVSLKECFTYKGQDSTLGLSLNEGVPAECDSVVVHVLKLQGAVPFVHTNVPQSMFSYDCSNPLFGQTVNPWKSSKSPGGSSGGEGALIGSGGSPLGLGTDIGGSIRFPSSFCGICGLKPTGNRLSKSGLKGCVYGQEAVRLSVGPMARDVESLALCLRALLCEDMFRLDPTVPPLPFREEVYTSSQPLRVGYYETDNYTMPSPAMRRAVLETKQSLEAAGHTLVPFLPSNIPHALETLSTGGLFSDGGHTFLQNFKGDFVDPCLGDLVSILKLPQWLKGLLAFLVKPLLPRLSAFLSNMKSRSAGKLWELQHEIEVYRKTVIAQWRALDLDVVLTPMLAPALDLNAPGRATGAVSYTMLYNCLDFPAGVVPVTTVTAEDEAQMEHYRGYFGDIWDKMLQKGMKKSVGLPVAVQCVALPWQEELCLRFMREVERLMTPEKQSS

MAGL [2] = biological target: T2, MAGL (Mus musculus, UniProt O35678); assay: In vitro competitive activity-based protein profiling, MAGL, mouse; conditions: read-out: MAGL % inh. 1 μM (mouse)
T2 sequence (O35678 1-303): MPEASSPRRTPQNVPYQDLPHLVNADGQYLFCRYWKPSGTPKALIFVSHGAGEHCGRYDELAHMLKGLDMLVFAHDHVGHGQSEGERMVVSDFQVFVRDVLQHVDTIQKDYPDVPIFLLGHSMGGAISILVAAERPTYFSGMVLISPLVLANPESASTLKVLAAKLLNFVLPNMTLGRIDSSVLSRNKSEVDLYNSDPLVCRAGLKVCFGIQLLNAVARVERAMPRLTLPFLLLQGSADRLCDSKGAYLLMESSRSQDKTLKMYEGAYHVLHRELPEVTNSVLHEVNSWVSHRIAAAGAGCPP

FAAH [3] = biological target: T3, FAAH (Mus musculus, UniProt O08914); assay: In vitro competitive activity-based protein profiling, FAAH, mouse; conditions: read-out: FAAH % inh. 1 μM (mouse)
T3 sequence (O08914 1-579): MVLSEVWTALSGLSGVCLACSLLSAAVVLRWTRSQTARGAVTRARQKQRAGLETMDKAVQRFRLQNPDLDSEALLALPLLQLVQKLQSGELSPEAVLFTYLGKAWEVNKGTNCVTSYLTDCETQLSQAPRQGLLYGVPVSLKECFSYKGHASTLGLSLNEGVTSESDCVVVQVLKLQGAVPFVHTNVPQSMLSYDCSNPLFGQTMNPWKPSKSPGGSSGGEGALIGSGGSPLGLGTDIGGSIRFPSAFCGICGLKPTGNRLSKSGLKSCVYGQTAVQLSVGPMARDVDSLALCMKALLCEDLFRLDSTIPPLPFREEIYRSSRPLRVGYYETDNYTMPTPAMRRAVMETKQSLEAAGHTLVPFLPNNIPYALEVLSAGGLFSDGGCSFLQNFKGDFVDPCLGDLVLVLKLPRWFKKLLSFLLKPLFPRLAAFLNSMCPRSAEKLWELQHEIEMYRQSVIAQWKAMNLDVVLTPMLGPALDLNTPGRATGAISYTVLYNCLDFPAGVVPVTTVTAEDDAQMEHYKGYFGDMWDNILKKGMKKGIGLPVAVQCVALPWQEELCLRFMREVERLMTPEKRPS

MAGL [4] = biological target: T4, MAGL (Homo sapiens, UniProt Q99685); assay: In vitro competitive activity-based protein profiling, MAGL, human; conditions: for inhibition at 1 µM: read-out: MAGL % inh. 1 μM (human)
T4 sequence (Q99685 1-303): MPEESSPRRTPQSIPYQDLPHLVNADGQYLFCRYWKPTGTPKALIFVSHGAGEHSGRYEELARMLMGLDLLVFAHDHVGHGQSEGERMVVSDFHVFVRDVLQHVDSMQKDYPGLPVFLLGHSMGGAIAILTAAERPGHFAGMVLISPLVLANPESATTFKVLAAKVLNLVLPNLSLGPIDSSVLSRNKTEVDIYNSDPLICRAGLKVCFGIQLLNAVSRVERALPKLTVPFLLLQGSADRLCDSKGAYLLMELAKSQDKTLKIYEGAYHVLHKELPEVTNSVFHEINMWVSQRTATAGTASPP

pIC50 (FAAH [1])	inhibition at 1 µM (FAAH [1])	inhibition at 1 µM (MAGL [2])	inhibition at 1 µM (FAAH [3])	inhibition at 1 µM (MAGL [4])	pIC50 (MAGL [4])	Structure (SMILES)
	> 75%	> 75%	50 to 75%	> 75%		NC(=O)c1ccn(C(=O)N2CCN(Cc3ccc(N4CCOCC4)cc3Cl)CC2)n1 [Example 165, 1-(4-(2-chloro-4-morpholinobenzyl)piperazine-1-carbonyl)-1H-pyrazole-3-carboxamide]
5.00 to 6.00	25 to 50%	> 75%	0 to 25%	> 75%		O=C(O)c1ccn(C(=O)N2CCN(Cc3ccc(N4CCCC4)cc3C(F)(F)F)CC2)n1 [Example 167, 1-(4-(4-(pyrrolidin-1-yl)-2-(trifluoromethyl)benzyl)piperazine-1-carbonyl)-1H-pyrazole-3-carboxylic acid]
	0 to 25%	0 to 25%	0 to 25%	25 to 50%		O=C(O)c1ccn(C(=O)N2CCC3(CCN(Cc4ccc(N5CCOCC5)cc4Cl)C3)CC2)n1 [Example 169, 1-(2-(2-chloro-4-morpholinobenzyl)-2,8-diazaspiro[4.5]decane-8-carbonyl)-1H-pyrazole-3-carboxylic acid]
5.00 to 6.00	0 to 25%	> 75%	0 to 25%	> 75%	6.00 to 7.00	O=C(O)c1ccn(C(=O)N2CCC3(CCN(Cc4ccc(Cl)cc4N4CCCC4)C3)CC2)n1 [Example 171, 1-(2-(4-chloro-2-(pyrrolidin-1-yl)benzyl)-2,8-diazaspiro[4.5]decane-8-carbonyl)-1H-pyrazole-3-carboxylic acid]
	> 75%	> 75%	50 to 75%	> 75%		NC(=O)c1ccn(C(=O)N2CCN(Cc3ccc(C(F)(F)F)cc3N3CCCC3)CC2)n1 [Example 173, 1-(4-(2-(pyrrolidin-1-yl)-4-(trifluoromethyl)benzyl)piperazine-1-carbonyl)-1H-pyrazole-3-carboxamide]
6.00 to 7.00	> 75%	> 75%	> 75%	> 75%		NC(=O)c1ccn(C(=O)N2CCN(Cc3cnccc3C(F)(F)F)CC2)n1 [Example 175, 1-(4-((4-(trifluoromethyl)pyridin-3-yl)methyl)piperazine-1-carbonyl)-1H-pyrazole-3-carboxamide]
	> 75%	> 75%	> 75%	> 75%		NC(=O)c1ccn(C(=O)N2CCN(Cc3ccc(Cl)cc3)CC2)n1 [Example 181, 1-(4-(4-chlorobenzyl)pipera-zine-1-carbonyl)-1H-pyrazole-3-carboxamide]

The remaining lines, values behind:

Structure (SMILES)	pIC50 (FAAH [1])	inhibition at 1 µM (FAAH [1])	inhibition at 1 µM (MAGL [2])	inhibition at 1 µM (FAAH [3])	inhibition at 1 µM (MAGL [4])	pIC50 (MAGL [4])
O=C(O)c1ccn(C(=O)N2CCC3(CCN(Cc4cc(Cl)cc(Cl)c4)C3)CC2)n1 [Example 162, 1-(2-(3,5-dichlorobenzyl)-2,8-diazaspiro[4.5]decane-8-carbonyl)-1H-pyrazole-3-carboxylic acid]	6.00 to 7.00	> 75%	> 75%	25 to 50%	> 75%	
CN(Cc1cccc(-c2ccccc2)c1)[C@@H]1C[C@@H]2CN(C(=O)n3ccc(C(=O)O)n3)C[C@@H]2C1 [Example 163, 1-(cis-5-(([1,1′-biphenyl]-3-ylmethyl)(methyl)amino)octahydro-cyclopenta[c]pyrrole-2-carbonyl)-1H-pyrazole-3-carboxylic acid]		25 to 50%	0 to 25%	0 to 25%	0 to 25%	
O=C(O)c1ccn(C(=O)N2C[C@H]3C[C@@H](Oc4cccc(-c5ccccc5)c4)C[C@H]3C2)n1 [Example 164, 1-(cis-5-([1,1′-biphenyl]-3-yloxy)octahydro-cyclopenta[c]pyrrole-2-carbonyl)-1H-pyrazole-3-carboxylic acid]	6.00 to 7.00	> 75%	> 75%	25 to 50%	> 75%	
O=C(O)c1ccn(C(=O)N2CC3CN(Cc4ccc(Cl)c(N5CC6COCC6C5)c4)CC3C2)n1 (centres unmarked) [Example 166, 1-(5-(4-chloro-3-(tetrahydro-1H-furo[3,4-c]pyrrol-5(3H)-yl)benzyl)octahydropyrrolo[3,4-c]pyrrole-2-carbonyl)-1H-pyrazole-3-carboxylic acid]		0 to 25%	> 75%	0 to 25%	50 to 75%	
O=C(O)c1ccn(C(=O)N2CCC3(CCN(Cc4ccc(N5CCCC5)c(Cl)c4)C3)CC2)n1 [Example 168, 1-(2-(3-chloro-4-(pyrrolidin-1-yl)benzyl)-2,8-diazaspiro[4.5]decane-8-carbonyl)-1H-pyrazole-3-carboxylic acid]		0 to 25%	0 to 25%	0 to 25%	50 to 75%	
Cc1cc(CO[C@H]2C[C@@H]3CN(C(=O)n4ccc(C(=O)O)n4)C[C@@H]3C2)ccc1C(F)(F)F [Example 172, 1-(trans-5-((3-methyl-4-(trifluoromethyl)benzyl)oxy)octa-hydrocyclopenta[c]pyrrole-2-carbonyl)-1H-pyrazole-3-carboxylic acid]		> 75%	> 75%	50 to 75%	> 75%	
NC(=O)c1ccn(C(=O)N2CCC3(CCCN3Cc3ccc(C(F)(F)F)cc3N3CCCC3)CC2)n1 [Example 174, 1-(1-(2-(pyrrolidin-1-yl)-4-(trifluoromethyl)benzyl)-1,8-diazaspiro[4.5]decane-8-carbonyl)-1H-pyrazole-3-carboxamide]		0 to 25%	> 75%	25 to 50%	> 75%	
CN(Cc1cccc(C(F)(F)F)c1)C1CCN(C(=O)n2ccc(C(N)=O)n2)CC1 [Example 176, 1-(4-(methyl(3-(trifluoromethyl)benzyl)amino)piper-idine-1-carbonyl)-1H-pyrazole-3-carboxamide]		> 75%	> 75%	> 75%	> 75%	
NC(=O)c1ccn(C(=O)N2CC3CN(Cc4ccc(C(F)(F)F)cc4)CC3C2)n1 (centres unmarked) [Example 182, 1-(5-(4-(trifluoromethyl)benzyl)octahydro-pyrrolo[3,4-c]pyrrole-2-carbonyl)-1H-pyrazole-3-carboxamide]		> 75%	> 75%	> 75%	> 75%	
O=C(O)c1ccn(C(=O)N2CCC3(CCN(Cc4ccc(C(F)(F)F)cc4N4CCC(F)CC4)CC3)C2)n1 [Example 186, 1-(8-(2-(4-fluoropiperidin-1-yl)-4-(trifluoromethyl)benzyl)-2,8-diazaspiro[4.5]decane-2-carbonyl)-1H-pyrazole-3-carboxylic acid]		0 to 25%	> 75%	0 to 25%	50 to 75%	
